This passage reports IC50 results from patent US20110130380A1, “Heteroaryl Kinase Inhibitors” (priority 2009, published 2011).

The term IC50 denotes the point on the concentration scale where inhibition reaches its midpoint.

In the assay the target is Cdk9/cyclinT1 (Homo sapiens, UniProt P50750). In words: Cdk9/cyclinT1 IMAP Protocol (fluorescence polarization kinase assay). As to conditions: ATP 6 uM. A general note: In fluorescence polarisation assays a small probe gives low polarisation when free and higher when bound to something large.
[1] abbreviates: Cdk9_cyclinT1_IC50, Table V, generated using one of the two Cdk9/cyclinT1 assays (IMAP or Alpha Screen), not stated which.
Where [2] appears, read: Cdk9_cyclinT1_IC50, generated using one of the two Cdk9/cyclinT1 assays (IMAP or Alpha Screen), not specified per value.

Chain of Cdk9/cyclinT1 (P50750 whole entry): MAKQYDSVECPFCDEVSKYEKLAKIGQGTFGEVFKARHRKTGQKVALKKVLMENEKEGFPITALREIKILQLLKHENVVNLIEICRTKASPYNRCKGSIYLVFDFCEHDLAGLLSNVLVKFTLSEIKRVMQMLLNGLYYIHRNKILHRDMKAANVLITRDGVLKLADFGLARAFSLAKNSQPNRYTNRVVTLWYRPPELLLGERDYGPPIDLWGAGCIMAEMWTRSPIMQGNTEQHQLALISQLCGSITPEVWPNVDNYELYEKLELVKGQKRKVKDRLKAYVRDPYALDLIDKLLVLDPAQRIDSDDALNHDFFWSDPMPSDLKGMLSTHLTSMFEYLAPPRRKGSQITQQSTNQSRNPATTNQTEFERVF
Chain of Cdk9/cyclinT1 (O60563 whole entry partner): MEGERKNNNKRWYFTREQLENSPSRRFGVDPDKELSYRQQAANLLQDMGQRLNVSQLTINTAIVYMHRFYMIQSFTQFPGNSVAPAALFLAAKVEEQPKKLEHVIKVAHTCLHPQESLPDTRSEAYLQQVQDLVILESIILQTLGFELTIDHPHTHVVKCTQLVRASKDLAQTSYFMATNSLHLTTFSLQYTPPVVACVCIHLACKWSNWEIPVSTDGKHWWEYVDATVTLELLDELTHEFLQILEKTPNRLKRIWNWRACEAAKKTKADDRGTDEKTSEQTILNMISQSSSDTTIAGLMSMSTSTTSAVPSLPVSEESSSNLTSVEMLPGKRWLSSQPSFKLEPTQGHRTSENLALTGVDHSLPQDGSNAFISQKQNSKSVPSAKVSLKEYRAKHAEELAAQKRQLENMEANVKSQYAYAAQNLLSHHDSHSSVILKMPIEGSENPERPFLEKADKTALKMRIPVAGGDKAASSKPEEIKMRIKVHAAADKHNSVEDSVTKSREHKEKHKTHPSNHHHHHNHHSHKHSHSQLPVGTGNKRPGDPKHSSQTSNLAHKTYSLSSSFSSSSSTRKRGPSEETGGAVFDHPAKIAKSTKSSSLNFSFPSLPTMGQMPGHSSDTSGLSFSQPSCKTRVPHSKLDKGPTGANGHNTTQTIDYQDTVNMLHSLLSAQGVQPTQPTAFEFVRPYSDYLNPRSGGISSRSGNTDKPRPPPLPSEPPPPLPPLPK

Under setting [1], `O=C(Nc1cc(-c2nc(NCC3CCOCC3)ccc2F)c(Cl)cn1)C1CNCCOC1` (centres unmarked) [Example 204, [1,4]Oxazepane-6-carboxylic acid {5′-chloro-3-fluoro-6-[(tetrahydro-pyran-4-ylmethyl)-amino]-[2,4′]bipyridinyl-2′-yl}-amide] had an IC50 of 1 nM. That is a single-digit nanomolar value. The same measure, in the same setting: the same measure for `O=C(Nc1cc(-c2ccc(F)c(NCC3CCOCC3)n2)c(Cl)cn1)[C@H]1CNCCO1` [Example 205, (R)-Morpholine-2-carboxylic acid {5′-chloro-5-fluoro-6-[(tetrahydro-pyran-4-ylmethyl)-amino]-[2,4′]bipyridinyl-2′-yl}-amide]: 5 nM; for `CC1(C)CCC(C(=O)Nc2cc(-c3cccc(NCC4CCOCC4)n3)c(Cl)cn2)CN1` (centres unmarked) [Example 206, 6,6-Dimethyl-piperidine-3-carboxylic acid {5′-chloro-6-[(tetrahydro-pyran-4-ylmethyl)-amino]-[2,4′]bipyridinyl-2′-yl}-amide]: 1 nM.

`CC1(CNc2cccc(-c3cc(NC(=O)[C@@H]4CCCNC4)ncc3Cl)n2)CCOCC1` [Example 207, (R)-Piperidine-3-carboxylic acid {5′-chloro-6-[(4-methyl-tetrahydro-pyran-4-ylmethyl)-amino]-[2,4′]bipyridinyl-2′-yl}-amide] displayed an IC50 under setting [1] of 1 nM. For `CC1(CNc2nc(-c3cc(NC(=O)[C@@H]4CCCNC4)ncc3Cl)ccc2F)CCOCC1` [Example 208, (R)-Piperidine-3-carboxylic acid {5′-chloro-5-fluoro-6-[(4-methyl-tetrahydro-pyran-4-ylmethyl)-amino]-[2,4′]bipyridinyl-2′-yl}-amide], the IC50 under setting [1] stood at 1 nM. Same read-out and setting: the same measure for `CCC1(CNc2nc(-c3cc(NC(=O)[C@@H]4CCCNC4)ncc3Cl)ccc2F)CCOCC1` [Example 209, (R)-Piperidine-3-carboxylic acid {5′-chloro-6-[(4-ethyl-tetrahydro-pyran-4-ylmethyl)-amino]-5-fluoro-[2,4′]bipyridinyl-2′-yl}-amide]: 1 nM. For `CC1(C)CCC(C(=O)Nc2cc(-c3ccc(F)c(NCC4CCOCC4)n3)c(Cl)cn2)CN1` (centres unmarked) [Example 210, 6,6-Dimethyl-piperidine-3-carboxylic acid {5′-chloro-5-fluoro-6-[(tetrahydro-pyran-4-ylmethyl)-amino]-[2,4′]bipyridinyl-2′-yl}-amide], under setting [1], half-maximal inhibition (IC50) required 1 nM. The same measure, in the same setting: the same measure for `O=C(Nc1cc(-c2ccc(C(F)(F)F)c(NCC3CCOCC3)n2)c(Cl)cn1)[C@@H]1CCCNC1` [Example 217, (R)-Piperidine-3-carboxylic acid {5′-chloro-6-[(tetrahydro-pyran-4-ylmethyl)-amino]-5-trifluoromethyl-[2,4′]bipyridinyl-2′-yl}-amide]: 4 nM.

Under setting [1], `CC1(C)COC(CNc2cccc(-c3cc(NC(=O)[C@@H]4CCCNC4)ncc3Cl)n2)CO1` (stereo partly drawn) [Example 218, (R)-Piperidine-3-carboxylic acid {5′-chloro-6-[(5,5-dimethyl-[1,4]dioxan-2-ylmethyl)-amino]-[2,4′]bipyridinyl-2′-yl}-amide] yielded an IC50 of 1 nM. Compared with the last compound, the IC50 is about 4-fold lower. The same measure, in the same setting: the same measure for `CC1(C)COCC(CNc2cccc(-c3cc(NC(=O)[C@@H]4CCCNC4)ncc3Cl)n2)O1` (stereo partly drawn) [Example 219, (R)-Piperidine-3-carboxylic acid {5′-chloro-6-[(6,6-dimethyl-[1,4]dioxan-2-ylmethyl)-amino]-[2,4′]bipyridinyl-2′-yl}-amide]: 1 nM; for `O=C(Nc1cc(-c2cccc(NCC3(F)CCOCC3)n2)c(Cl)cn1)[C@@H]1CCCNC1` [Example 237, (R)-Piperidine-3-carboxylic acid {5′-chloro-6-[(4-fluoro-tetrahydro-pyran-4-ylmethyl)-amino]-[2,4′]bipyridinyl-2′-yl}-amide]: 1 nM. With `N#CC1(CNc2cccc(-c3cc(NC(=O)[C@@H]4CCCNC4)ncc3Cl)n2)CCOCC1` [Example 238, (R)-Piperidine-3-carboxylic acid {5′-chloro-6-[(4-cyano-tetrahydro-pyran-4-ylmethyl)-amino]-[2,4′]bipyridinyl-2′-yl}-amide], it took 1 nM to reach half-maximal inhibition under setting [1] (IC50). This counts as single-digit nanomolar. The same measure, in the same setting: the same measure for `COC[C@@H]1C[C@@H](C(=O)Nc2cc(-c3cccc(NCC4(C)CCOCC4)n3)c(Cl)cn2)CN1` [Example 239, (3R,5S)-5-Methoxymethyl-pyrrolidine-3-carboxylic acid {5′-chloro-6-[(4-methyl-tetrahydro-pyran-4-ylmethyl)-amino]-[2,4′]bipyridinyl-2′-yl}-amide]: 1 nM; for `COC[C@H]1C[C@@H](C(=O)Nc2cc(-c3cccc(NCC4(C)CCOCC4)n3)c(Cl)cn2)CN1` [Example 246, (3R,5R)-5-Methoxymethyl-pyrrolidine-3-carboxylic acid {5′-chloro-6-[(4-methyl-tetrahydro-pyran-4-ylmethyl)-amino]-[2,4′]bipyridinyl-2′-yl}-amide]: 6 nM; for `CC[C@H]1CC[C@@H](C(=O)Nc2cc(-c3cccc(NCC4CCOCC4)n3)c(Cl)cn2)CN1` [Example 247, (3R,6S)-6-Ethyl-piperidine-3-carboxylic acid {5′-chloro-6-[(tetrahydro-pyran-4-ylmethyl)-amino]-[2,4′]bipyridinyl-2′-yl}-amide]: 7 nM. In the case of `COC1(CNc2nc(-c3cc(NC(=O)[C@@H]4CCCNC4)ncc3Cl)ccc2F)CCOCC1` [Example 248, (R)-Piperidine-3-carboxylic acid {5′-chloro-5-fluoro-6-[(4-methoxy-tetrahydro-pyran-4-ylmethyl)-amino]-[2,4′]bipyridinyl-2′-yl}-amide], the IC50 under setting [1] amounted to 3 nM. This IC50 lies about 2.3-fold lower than the previous one. On the same count and under the same terms, the same measure for `CC(C)O[C@H]1CNC[C@@H]1C(=O)Nc1cc(-c2cccc(NCC3(C)CCOCC3)n2)c(Cl)cn1` [Example 249, (3S,4R)-4-Isopropoxy-pyrrolidine-3-carboxylic acid {5′-chloro-6-[(4-methyl-tetrahydro-pyran-4-ylmethyl)-amino]-[2,4′]bipyridinyl-2′-yl}-amide]: 9 nM. Still for that read-out and setting: the same measure for `COC[C@@H]1C[C@@H](C(=O)Nc2cc(-c3ccc(F)c(NCC4(OC)CCOCC4)n3)c(Cl)cn2)CN1` [Example 253, (3R,5S)-5-Methoxymethyl-pyrrolidine-3-carboxylic acid {5′-chloro-5-fluoro-6-[(4-methoxy-tetrahydro-pyran-4-ylmethyl)-amino]-[2,4′]bipyridinyl-2′-yl}-amide]: 1 nM; for `CC1(C)COCC(CNc2nc(-c3cc(NC(=O)[C@@H]4CCCNC4)ncc3Cl)ccc2F)O1` (stereo partly drawn) [Example 254, (R)-Piperidine-3-carboxylic acid {5′-chloro-6-[(6,6-dimethyl-[1,4]dioxan-2-ylmethyl)-amino]-5-fluoro-[2,4′]bipyridinyl-2′-yl}-amide]: 1 nM; for `CC1(C)COC(CNc2nc(-c3cc(NC(=O)[C@@H]4CCCNC4)ncc3Cl)ccc2F)CO1` (stereo partly drawn) [Example 255, (R)-Piperidine-3-carboxylic acid {5′-chloro-6-[(5,5-dimethyl-[1,4]dioxan-2-ylmethyl)-amino]-5-fluoro-[2,4′]bipyridinyl-2′-yl}-amide]: 1 nM. On the same count and under the same terms, the same measure for `COCCOC[C@@H]1C[C@@H](C(=O)Nc2cc(-c3cccc(NCC4(C)CCOCC4)n3)c(Cl)cn2)CN1` [Example 258, (3R,5S)-5-(2-Methoxy-ethoxymethyl)-pyrrolidine-3-carboxylic acid {5′-chloro-6-[(4-methyl-tetrahydro-pyran-4-ylmethyl)-amino]-[2,4′]bipyridinyl-2′-yl}-amide]: 2 nM; for `CC1(C)C[C@H](CNc2cccc(-c3cc(NC(=O)[C@@H]4CCNC4)ncc3Cl)n2)CCO1` [Example 259, (R)-Pyrrolidine-3-carboxylic acid {5′-chloro-6-[((R)-2,2-dimethyl-tetrahydro-pyran-4-ylmethyl)-amino]-[2,4′]bipyridinyl-2′-yl}-amide]: 1 nM; for `CC1(C)C[C@@H](CNc2cccc(-c3cc(NC(=O)[C@@H]4CCNC4)ncc3Cl)n2)CCO1` [Example 260, (R)-Pyrrolidine-3-carboxylic acid {5′-chloro-6-[((S)-2,2-dimethyl-tetrahydro-pyran-4-ylmethyl)-amino]-[2,4′]bipyridinyl-2′-yl}-amide]: 1 nM.

The compound `COC1(CNc2nc(-c3cc(NC(=O)C4CCC(C)NC4)ncc3Cl)ccc2F)CCOCC1` (centres unmarked) [Example 261, 6-Methyl-piperidine-3-carboxylic acid {5′-chloro-5-fluoro-6-[(4-methoxy-tetrahydro-pyran-4-ylmethyl)-amino]-[2,4′]bipyridinyl-2′-yl}-amide] returned an IC50 under setting [1] of 1 nM. This lies in the single-digit nanomolar range. Turning to `O=C(Nc1cc(-c2cncc(NCC3CCOCC3)c2)c(Cl)cn1)[C@@H]1CCCNC1` [Example 301, (R)-Piperidine-3-carboxylic acid {5′-chloro-5-[(tetrahydro-pyran-4-ylmethyl)-amino]-[3,4′]bipyridinyl-2′-yl}-amide], under setting [2], the IC50 was below 8 nM. The same measure, in the same setting: the same measure for `O=C(Nc1cc(-c2cnc(Cl)c(NCC3CCOCC3)c2)c(Cl)cn1)[C@@H]1CCCNC1` [Example 302, (R)-Piperidine-3-carboxylic acid {6,5′-dichloro-5-[(tetrahydro-pyran-4-ylmethyl)-amino]-[3,4′]bipyridinyl-2′-yl}-amide]: below 8 nM. Under setting [2], `CC(C)(C)OC(=O)N1CCC[C@@H](C(=O)Nc2cc(-c3cnc(Cl)c(NCC4CCOCC4)c3)c(Cl)cn2)C1` [Example 303, (R)-3-{6,5′-Dichloro-5-[(tetrahydro-pyran-4-ylmethyl)-amino]-[3,4′]bipyridinyl-2′-ylcarbamoyl}-piperidine-1-carboxylic acid tert-butyl ester] displayed an IC50 of 25 nM. The same measure, in the same setting: the same measure for `CC(C)(C)OC(=O)N1CCC[C@@H](C(=O)Nc2cc(-c3cncc(NCC4CCOCC4)c3)c(Cl)cn2)C1` [Example 304, (R)-3-{5′-Chloro-5-[(tetrahydro-pyran-4-ylmethyl)-amino]-[3,4′]bipyridinyl-2′-ylcarbamoyl}-piperidine-1-carboxylic acid tert-butyl ester]: 81 nM.

Under setting [2], `O=C(Nc1cc(-c2cccnc2)c(Cl)cn1)[C@@H]1CCCNC1` [Example 305, (R)-Piperidine-3-carboxylic acid (5′-chloro-[3,4′]bipyridinyl-2′-yl)-amide] came in with an IC50 of 376 nM. Against the preceding compound, the IC50 is about 4.6-fold higher.
